Results taken from patent US20150259331A1, “PROTOZOAN PARASITE GROWTH INHIBITORS” (Northeastern University, priority 2014, published 2015).
Like-named read-outs stand apart in the source and are kept apart here.

Assays:
[1] = test system: T. brucei brucei Lister 427; assay: Trypanosome replication assay; assay type: cell-based, Trypanosoma brucei brucei; conditions: Trypanosoma brucei
T. cruzi = T. cruzi growth inhibition; assay type: cell-based, Trypanosoma cruzi; conditions: Trypanosoma cruzi
L. major promastigote = L. major promastigote assay; assay type: cell-based; conditions: Leishmania major
L. major amastigote = L. major amastigote assay; assay type: cell-based; conditions: Leishmania major
P. falciparum D6 = P. falciparum D6 assay; assay type: cell-based; conditions: Plasmodium falciparum; strain D6
P. falciparum C235 = P. falciparum C235 assay; assay type: cell-based; conditions: Plasmodium falciparum; strain C235; read-out: P. falciparum C235 (EC50)
logD = assay type: physicochemical
[2] = Thermodynamic aqueous solubility; assay type: physicochemical
[3] = Mouse oral pharmacokinetic study; assay type: in vivo, male BALB/c mice
Experimental: Test system. Healthy male BALB/c mice (8-12 weeks old) weighing between 20 to 35 g were procured from In vivo biosciences, Bengaluru, India. Maximum three mice were housed in each polycarbonate cage. […] The temperature and humidity were recorded by auto-controlled data logger system. Animals were provided laboratory rodent diet ([…], Bengaluru) ad libitum and were provided fresh water ad libitum (reverse osmosis water treated with UV light). Study Design. […] The dosing volume administered for was 10 mL/kg. Formulation Preparation. Formulation of NEU-617 was given orally. The strength of oral suspension formulation was 4 mg/mL. The weighed quantity (39.22 mg) of compound NEU-617 for p.o. dosing was added in a mortar. […] Sample Collection. […] The blood samples (approximately 60 μL) were collected from the retro-orbital plexus into labeled tubes, containing K2EDTA solution, as an anticoagulant. Plasma was harvested from the blood by centrifugation at 4000 rpm for 10 min at 4±2° C. and stored below -70° C. until bioanalysis. […] Following collection, the brain samples were washed by dipping in 20 mL of ice-cold phosphate buffer saline (pH 7.4), dried gently on a filter paper, weighed and placed in polypropylene tubes. Further brain samples were homogenized using ice-cold phosphate buffer saline (pH 7.4) and the total homogenate volume was thrice the brain weight. The brain samples were stored at -70° C. until bioanalysis. Data analysis. The Non-Compartmental-Analysis module in WinNonlin® (Version 5.2) was used to assess the pharmacokinetic parameters. Peak plasma concentrations (Cmax) and time for the peak plasma concentrations (Tmax) were the observed values. The areas under the concentration time curve (AUClast and AUCinf) were calculated by linear trapezoidal rule.

T. brucei brucei CA427 = assay: Drug efficacy in a mouse model of human African trypanosomiasis
Description: (§1) The kinetoplast and nucleus can be tracked by microscopy during the cell cycle, which begins with trypanosomes harboring one nucleus (1N) and one kinetoplast (1K) (i.e., 1K1N cells). A kinetoplast that is replicating its (DNA) (i.e., kDNA) and increasing the organelle's mass is observed as an elongated kinetoplast (1Ke). Fission (segregation) of 1Ke kinetoplasts into two daughter kinetoplasts (2K) inside the same cell is coincident with the nuclear S-phase and produces 2K1N trypanosomes. Mitosis then occurs, yielding trypanosomes containing two kinetoplasts and two nuclei (2K2N). Following cell division, each daughter trypanosome has a 1K1N configuration of the organelles.
Swiss Webster (female) mice, aged 8-10 weeks, were intraperitoneally inoculated with 10^3 T. brucei CA427 strain using a 1 ml hypodermic syringe and 26G ½″ needle (day 0). The mice were assigned to control or NEU617 -treated groups (four per group). Treatment was initiated one-day post infection for two weeks. Control group received the vehicle only. Drug-treated mice were given 10 mg/kg NEU617 twice daily at 12 h interval (orally or intraperitoneally) based on their body weights. NEU617 was reconstituted in (i) DMSO for intraperitoneal (I.P.) administration, and (ii) N-methyl-2-pyrrolidone and polyethylene glycol 300 (1:9, v/v) for oral (P.O.) dosing. Drugs were prepared fresh daily and the concentration was adjusted so that the animals received <200 μl of solvent/dose/animal. […] Further dilutions of blood were made with bicine-buffered saline with glucose, as needed. Animals showing distress symptoms at any stage of the study were euthanized. All experiments were conducted following protocols approved by the Institutional Animal Care and Use Committee (IACUC).

[4] = test system: endocytosis of transferrin; assay: Receptor-mediated endocytosis of transferrin in the trypanosome; assay type: cell-based, T. brucei
T. brucei = assay: Trypanosome DNA content and organelle (cell cycle) analysis; assay type: cell-based
Description: as §1

[5] = male
[6] = Protein binding (Table 14); conditions: plasma
[7] = male, BALB/c, mouse, brain, 40 mg/kg PO single dose
[8] = male, BALB/c, mouse, plasma, 40 mg/kg PO single dose

Fc1cccc(COc2ccc(Nc3ncnc4ccc(-c5cccc(N6CCOCC6)c5)cc34)cc2Cl)c1 [Compound 23a, N-(3-Chloro-4-((3-fluorobenzyl)oxy)phenyl)-6-(3-morpholinophenyl)quinazolin-4-amine]
EC50 ([1]; 48 h, concentration giving 50% inhibition of growth of T brucei brucei Lister 427 cells, 48 h, values ±7%, read-out: Tbb EC50): 42 nM
EC50 ([1]; read-out: EC50 expressed as ng/mL, T. brucei EC50 converted, FIG. 1 legend): 22.7 ng/mL
EC50 (T. cruzi): 1800 nM
EC50 (L. major promastigote): 3000 nM
EC50 (L. major amastigote): 8000 nM
EC50 (P. falciparum D6): 230 nM
EC50 (P. falciparum C235): 370 nM
logD (logD): 3.2
Solubility [2]: <1 µM
CNS fraction ([3]; 40 mg/kg single oral dose): 5%
time plasma levels were in excess of the EC50 ([3]; 40 mg/kg single oral dose): > 12 h
AUC(0-t) [3, 7]: 92.5 ng·h/mL
Cmax [3, 7]: 26 ng/mL
Tmax [3, 7]: 0.5 h
AUC(0-inf) [3, 8]: 2000 ng·h/mL
AUC(0-t) [3, 8]: 1950 ng·h/mL
Cmax [3, 8]: 153 ng/mL
Tmax [3, 8]: 2 h
delay of detection of trypanosomes in the blood (T. brucei brucei CA427; 10 mg/kg twice per day ip): 24 h
survival on day 8 (T. brucei brucei CA427; 10 mg/kg twice per day ip, all untreated mice had died): all alive
mouse survival life span (T. brucei brucei CA427; 10 mg/kg twice per day ip, control group 5 days): 9 days
time without parasites detected in the blood of infected mice (T. brucei brucei CA427; 40 mg/kg once per day from 24 h after infection, control positive on day 2): 3 days
drug-related toxicity (T. brucei brucei CA427; multiday regimen at 40 mg/kg): drug-related toxicity was observed
effect on endocytosis of transferrin [4]: no effect
effect on kinetoplast, nucleus and cytokinesis (single cell microscopy) (T. brucei): blocks duplication of the kinetoplast and arrests cytokinesis without inhibiting division of the trypanosome nucleus
proportion of cells with 4C DNA (T. brucei; 7 h incubation, 25% without drug): 40%
fraction of cells with 2C-4C equivalents of DNA (T. brucei; 7 h incubation, 40% without drug): 25%
Human liver microsomes median CLint: 63.03 µL/min/mg
Male rat hepatocytes median CLint [5]: 44.5 μl/min/1E6 cells
fraction unbound [6]: < 0.01
